The text below walks through data of patent publication US20070086949A1, “Method of bioimaging using nanocrystals of fluorescent dyes” (priority 2005, published 2007).

Data set [1] concerns human cervix carcinoma cell line Hela. Description: Confocal imaging of HeLa cells incubated with dye nanocrystal water dispersion. Format: cell-based. Particulars: confocal microscopy. The procedure: For cellular imaging, human cervix carcinoma cell line Hela was incubated with the prepared dye dispersion. The cell culture and imaging conditions are described in detail here. Human cervical carcinoma cell line (HeLa) was maintained in Dulbecco's modified eagle medium with 10% FBS according to the manufacturers instructions (American Type Culture Collection, Manassas, Va.). To study the uptake and imaging of HPPH nanocrystals, the cells were trypsinized and resuspended in the corresponding suitable media at a concentration of around 7.5×10^5/ml. 60 μl of this suspension was transferred to each 35 mm culture plate and 2 ml of the corresponding full medium was added. These plates were then placed in an incubator at 37° C. with 5% CO2 (VWR Scientific, model 2400). After 36 hours of incubation, the cells (about 60% confluency) were rinsed with PBS, and 2 ml of the corresponding fresh media was added to the plates. Finally, 50 μl of dye nanocrystals was added and mixed properly. Plates were returned to the incubator (37° C., 5% CO2) for the required incubation period. 50 μl of dye/Tween80 micelles of same dye concentration was used as control and separate culture plates were treated and incubated for the same time period as in the case of nanocrystals. […]

A short description of data set [2]: Size of TPB and perylene nanocrystals in water dispersion. Format: physicochemical. The procedure: Briefly, 200 μl of dye acetone solution (10 mM concentration ) was injected into magnetically stirring water (10 ml). The average size of nanoparticle was estimated to vary from 50 nm to 200 nm depending on the concentration of original organic solution and water temperature. A homogenous dispersion of the dye nanocrystals without any noticeable aggregation or clumps was produced. Optical properties of the prepared nanocrystals were studied using UV-Visible and fluorescence spectroscopy. UV-visible absorption spectra as well as the fluorescence spectra of the nanocrystals were acquired using a Shimadzu 3600 UV spectrometer and a Jobin-Yvon Spectramax fluorimeter. Changes in absorption spectra as well as fluorescence intensity changes (such as quenching) were studied by comparing the spectra of nanocrystals in water with that of organic solution.
For this experiment, perylene was dissolved on DMSO at 1 mM, 10 mM or 100 mM. The nanocrystals were prepared as described in Example 1 by adding to water at 4° C. or 80° C.

Regarding `c1cc2cccc3c4cccc5cccc(c(c1)c23)c54` [perylene], the intracellular staining pattern entry in data set [1] is “staining the entire cytoplasm with higher dye accumulation in vescicular bodies such as lysosomes”. The “size of the nanocrystals versus concentration of the dye” value in data set [2] (perylene in DMSO at 1 mM, 10 mM or 100 mM, added to water at 4° C. or 80° C.) is “increase with increasing concentration”. Further, the “size of the nanocrystals versus water temperature” value in data set [2] (water at 4° C. or 80° C.) was “greater at the higher water temperature”.
